Test results: patent publication US8329899B2, “Pyrazole compounds that modulate HSP90 activity” (Synta Pharmaceuticals, Corp., priority 2005, dated 2012)

System: Her2
Assay: Degradation of Her2 in BT-474 cells, Method 1 (Western blot)
Assay type: cell-based, Human
Settings: 0.5 μM, overnight
Method: Human high-Her2 breast carcinoma BT474 (HTB-20), SK-BR-3 (HTB-30) and MCF-7 breast carcinoma (HTB-22) from American Type Culture Collection, Va., USA were grown in Dulbecco's modified Eagle's medium with 4 mM L-glutamine and antibiotics (100 IU/ml penicillin and 100 ug/ml streptomycine; GibcoBRL). To obtain exponential cell growth, cells were trypsinized, counted and seeded at a cell density of 0.5×10^6 cells/ml regularly, every 3 days. All experiments were performed on day 1 after cell passage.
BT-474 cells are treated with 0.5 μM, 2 μM, or 5 μM of 17AAG (a positive control) or 0.5 μM, 2 μM, or 5 μM of a compound of the invention overnight in DMEM medium. After treatment, each cytoplasmic sample is prepared from 1×10^6 cells by incubation of cell lysis buffer (#9803, cell Signaling Technology) on ice for 10 minutes. The resulting supernatant used as the cytosol fractions is dissolved with sample buffer for SDS-PAGE and run on a SDS-PAGE gel, blotted onto a nitrocellulose membrane by using semi-dry transfer. Non-specific binding to nitrocellulose is blocked with 5% skim milk in TBS with 0.5% Tween at room temperature for 1 hour, then probed with anti-Her2/ErB2 mAb (rabbit IgG, #2242, Cell Signaling) and anti-Tubulin (T9026, Sigma) as housekeeping control protein. […]

C=CCNC1=C2C[C@@H](C)C[C@H](OC)[C@H](O)[C@@H](C)/C=C(\C)[C@H](OC(N)=O)[C@@H](OC)/C=C\C=C(/C)C(=O)NC(=CC1=O)C2=O [Compound 17AAG]
degradation of Her2: partial degradation
